Starred links: 1 amine or outer side, 2 acyl side, 3 side chain; linkers in the order of their positions; H or OH if unused. Positions of bridges follow the written chain, without caps; N, C: chain ends. Non-standard residues stand in square brackets, D forms with d. Residues, ends and D or L forms follow the SMILES beside them. *: point of attachment. X2 = N=C(N)Nc1cccc(CC(N[*:1])C(=O)[*:2])c1; Bip = N[C@@H](Cc1ccc(-c2ccccc2)cc1)C(=O)O; Arg(Me2a) = CN(C)C(=N)NCCC[C@H](N)C(=O)O; Nle(6-Ph) = N[C@@H](CCCCc1ccccc1)C(=O)O; X3 = CCCCCCCCC[C@H](N[*:1])C(=O)[*:2]; Met(O2) = CS(=O)(=O)CC[C@H](N)C(=O)O; hArg = N=C(N)NCCCC[C@H](N)C(=O)O; Cit = NC(=O)NCCC[C@H](N)C(=O)O; Ahp(2) = CCCCC[C@H](N)C(=O)O; hSer = N[C@@H](CCO)C(=O)O; X1 = COCCOCCOCCOCCC(=O)*
Target: His-tagged CD38 (Homo sapiens, UniProt P28907)
Assay: SPR assay (Biacore S200, Sensor Chip NTA, single-cycle kinetics) of SEQ ID NO.1 variants against His-tagged CD38
Assay type: binding
Conditions: for kon / koff: SPR Biacore S200, NTA chip, His-tagged CD38; for kon: read-out: Ka (association rate constant); for koff: read-out: Kd (dissociation rate constant); for Kd: SPR Biacore S200, His-tagged CD38, calculated from ka and kd
Method: SPR assay was performed using Biacore S200 (Cytiva: Former GE Healthcare).
After the equilibration of Series S Sensor Chip NTA (produced by Cytiva: Former GE Healthcare) with Running Buffer (10 mM HEPES pH7.4, 150 mM NaCl, 0.05% Tween 20), followed by injection of 350 mM EDTA at a flow rate of 10 L/min for 60 seconds and […] NiCl2 at a flow rate of 10 L/min for 60 seconds, then 3 mM EDTA at a flow rate of 10 L/min for 120 seconds, sequently, to wash the sensor chip.
EDC/NHS mixture was injected at a flow rate of […] for 7 minutes to thereby activate the functional groups on sensor chip. His-tagged CD38 in Running Buffer (10 mM HEPES pH7.4, 150 mM NaCl, 0.05% Tween 20) was injected immobilized to at a flow rate of […]. For 7 minutes to immobilize the CD38 on the substrate surfaces of the sensor chip. Then Ethanolamine was injected at a flow rate of […] for 7 minutes.
1.0 M Ethanolamine(aq.) was injected at a flow rate of 10 L/min for 420 seconds for capping. 10 mM peptides (which were synthesised described above) in DMSO were diluted to obtain 10 uM with Running Buffer, and prepared 100 nM, 50 nM, 25 nM, 10 nM, 5 nM of each peptide's solutions (Peptide Samples).
Using these Peptide Samples, kinetics of peptides against His-tagged CD38 was measured. The method adopted for sample measurement was a single-cycle kinetics method. The analysis was conducted using the evaluation software 1.1 provided with Biacore S200. A DMSO correction curve obtained by solvent correction measurements was applied for the analysis. Kinetics fitting was done on the difference data obtained by subtracting the baseline data from sample measurement data.
KD values were calculated based on the association rate constant (ka) and dissociation rate constant (kd).

kon | koff | Kd | Compound
370000 M⁻¹ s⁻¹ | 0.0013 s⁻¹ |  | CCCCCCCCC[C@@H]1NC(=O)[C@H](Cc2ccc(-c3ccccc3)cc2)NC(=O)[C@H](CC(C)C)NC(=O)[C@H](C(C)C)NC(=O)[C@H](CCC(=O)O)NC(=O)[C@H](CC(=O)O)NC(=O)[C@H](Cc2c[nH]cn2)NC(=O)[C@H](Cc2ccc(O)cc2)NC(=O)[C@H](CCCCC)NC(=O)[C@H](CCCNC(=N)N)NC(=O)[C@H](C)NC(=O)CSC[C@@H](C(N)=O)NC(=O)[C@H](CC(=O)O)NC1=O [compound 24] ({CH2CO}-AR[Ahp(2)]YHDEVL[Bip][X3]DC-NH2; thioether N-13 (inferred); N-terminus and C-terminus assumed)
570000 M⁻¹ s⁻¹ | 0.022 s⁻¹ |  | CCCCC[C@@H]1NC(=O)[C@H](CCCNC(=N)N)NC(=O)[C@H](C)NC(=O)CSC[C@@H](C(N)=O)NC(=O)[C@H](CC(=O)O)NC(=O)[C@H](CCCCC)NC(=O)[C@H](Cc2ccc(-c3ccccc3)cc2)NC(=O)[C@H](CCS(C)(=O)=O)NC(=O)[C@H](C(C)C)NC(=O)[C@H](CCC(=O)O)NC(=O)[C@H](CC(=O)O)NC(=O)[C@H](Cc2c[nH]cn2)NC(=O)[C@H](Cc2ccc(O)cc2)NC1=O [compound 14] ({CH2CO}-AR[Ahp(2)]YHDEV[Met(O2)][Bip][Ahp(2)]DC-NH2; thioether N-13 (inferred); N-terminus and C-terminus assumed)
250000 M⁻¹ s⁻¹ | 0.0014 s⁻¹ | 5.6 nM | CCCCC[C@@H]1NC(=O)[C@H](CCCNC(=N)N(C)C)NC(=O)[C@H](C)NC(=O)CSC[C@@H](C(N)=O)NC(=O)[C@H](CC(=O)O)NC(=O)[C@H](CCCCc2ccccc2)NC(=O)[C@H](Cc2ccc(-c3ccccc3)cc2)NC(=O)[C@H](CC(C)C)NC(=O)[C@H](C(C)C)NC(=O)[C@H](CCC(=O)O)NC(=O)[C@H](CC(=O)O)NC(=O)[C@H](Cc2c[nH]cn2)NC(=O)[C@H](Cc2ccc(O)cc2)NC1=O [compound 32] ({CH2CO}-A[Arg(Me2a)][Ahp(2)]YHDEVL[Bip][Nle(6-Ph)]DC-NH2; thioether N-13)
630000 M⁻¹ s⁻¹ | 0.00087 s⁻¹ |  | CCCCC[C@@H]1NC(=O)[C@H](CCCNC(=N)N)NC(=O)[C@H](C)NC(=O)CSC[C@@H](C(N)=O)NC(=O)[C@H](CC(=O)O)NC(=O)[C@H](CCCCc2ccccc2)NC(=O)[C@H](Cc2ccc(-c3ccccc3)cc2)NC(=O)[C@H](CC(C)C)NC(=O)[C@H](C(C)C)NC(=O)[C@H](CCC(=O)O)NC(=O)[C@H](CC(=O)O)NC(=O)[C@H](Cc2c[nH]cn2)NC(=O)[C@H](Cc2ccc(O)cc2)NC1=O [compound 25] ({CH2CO}-AR[Ahp(2)]YHDEVL[Bip][Nle(6-Ph)]DC-NH2; thioether N-13)
790000 M⁻¹ s⁻¹ | 0.0306 s⁻¹ | 38.8 nM | CCCCC[C@@H]1NC(=O)[C@H](CCCNC(=N)N)NC(=O)[C@H](C)NC(=O)CSC[C@@H](C(N)=O)NC(=O)[C@H](CC(=O)O)NC(=O)[C@H](CCCCC)NC(=O)[C@H](Cc2ccc(-c3ccccc3)cc2)NC(=O)[C@H](CCO)NC(=O)[C@H](C(C)C)NC(=O)CNC(=O)[C@H](CC(=O)O)NC(=O)[C@H](Cc2c[nH]cn2)NC(=O)[C@H](Cc2ccc(O)cc2)NC1=O [compound 8] ({CH2CO}-AR[Ahp(2)]YHDGV[hSer][Bip][Ahp(2)]DC-NH2; thioether N-13)
380000 M⁻¹ s⁻¹ | 0.00078 s⁻¹ |  | CCCCC[C@@H]1NC(=O)C(Cc2cccc(NC(=N)N)c2)NC(=O)[C@H](C)NC(=O)CSC[C@@H](C(N)=O)NC(=O)[C@H](CC(=O)O)NC(=O)[C@H](CCCCC)NC(=O)[C@H](Cc2ccc(-c3ccccc3)cc2)NC(=O)[C@H](CC(C)C)NC(=O)[C@H](C(C)C)NC(=O)[C@H](CCC(=O)O)NC(=O)[C@H](CC(=O)O)NC(=O)[C@H](Cc2c[nH]cn2)NC(=O)[C@H](Cc2ccc(O)cc2)NC1=O (stereo partly drawn) [compound 29] ({CH2CO}-A[X2][Ahp(2)]YHDEVL[Bip][Ahp(2)]DC-NH2; thioether N-13; C-terminus assumed)
680000 M⁻¹ s⁻¹ | 0.0016 s⁻¹ | 2.4 nM | CCCCC[C@@H]1NC(=O)[C@H](CCCNC(N)=O)NC(=O)[C@H](C)NC(=O)CSC[C@@H](C(N)=O)NC(=O)[C@H](CC(=O)O)NC(=O)[C@H](CCCCc2ccccc2)NC(=O)[C@H](Cc2ccc(-c3ccccc3)cc2)NC(=O)[C@H](CC(C)C)NC(=O)[C@H](C(C)C)NC(=O)[C@H](CCC(=O)O)NC(=O)[C@H](CC(=O)O)NC(=O)[C@H](Cc2c[nH]cn2)NC(=O)[C@H](Cc2ccc(O)cc2)NC1=O [compound 28] ({CH2CO}-A[Cit][Ahp(2)]YHDEVL[Bip][Nle(6-Ph)]DC-NH2; thioether N-13)
766000 M⁻¹ s⁻¹ | 0.00161 s⁻¹ |  | CCCCC[C@@H]1NC(=O)[C@H](CCCNC(=N)N)NC(=O)[C@H](C)NC(=O)CSC[C@@H](C(N)=O)NC(=O)[C@H](CC(=O)O)NC(=O)[C@H](CCCCC)NC(=O)[C@H](Cc2ccc(-c3ccccc3)cc2)NC(=O)[C@H](CC(C)C)NC(=O)[C@H](C(C)C)NC(=O)[C@H](CC(N)=O)NC(=O)[C@H](CC(=O)O)NC(=O)[C@H](Cc2c[nH]cn2)NC(=O)[C@H](Cc2ccc(O)cc2)NC1=O [compound 5] ({CH2CO}-AR[Ahp(2)]YHDNVL[Bip][Ahp(2)]DC-NH2; thioether N-13)
220000 M⁻¹ s⁻¹ | 0.006 s⁻¹ | 27.7 nM | CCCCC[C@@H]1NC(=O)[C@H](CCCCNC(=O)CCOCCOCCOCCOC)NC(=O)[C@H](C)NC(=O)CSC[C@@H](C(N)=O)NC(=O)[C@H](CC(=O)O)NC(=O)[C@H](CCCCC)NC(=O)[C@H](Cc2ccc(-c3ccccc3)cc2)NC(=O)[C@H](CC(C)C)NC(=O)[C@H](C(C)C)NC(=O)[C@H](CCC(=O)O)NC(=O)[C@H](CC(=O)O)NC(=O)[C@H](Cc2c[nH]cn2)NC(=O)[C@H](Cc2ccc(O)cc2)NC1=O [compound 18] ({CH2CO}-AK(X1)[Ahp(2)]YHDEVL[Bip][Ahp(2)]DC-NH2; thioether N-13)
870000 M⁻¹ s⁻¹ | 0.015 s⁻¹ | 17.3 nM | CCCCC[C@@H]1NC(=O)[C@H](CCCNC(=N)N)NC(=O)[C@H](C)NC(=O)CSC[C@@H](C(N)=O)NC(=O)[C@H](CC(=O)O)NC(=O)[C@H](CCCCC)NC(=O)[C@H](Cc2ccc(-c3ccccc3)cc2)NC(=O)[C@H](CCS(C)(=O)=O)NC(=O)[C@H](C(C)C)NC(=O)[C@H](CCCCNC(=N)N)NC(=O)[C@H](CC(=O)O)NC(=O)[C@H](Cc2c[nH]cn2)NC(=O)[C@H](Cc2ccc(O)cc2)NC1=O [compound 16] ({CH2CO}-AR[Ahp(2)]YHD[hArg]V[Met(O2)][Bip][Ahp(2)]DC-NH2; thioether N-13)
660000 M⁻¹ s⁻¹ | 0.0015 s⁻¹ |  | CCCCC[C@@H]1NC(=O)[C@H](CCCNC(=N)N)NC(=O)[C@H](C)NC(=O)CSC[C@@H](C(N)=O)NC(=O)[C@H](CC(=O)O)NC(=O)[C@H](CCCCC)NC(=O)[C@H](Cc2ccc(-c3ccccc3)cc2)NC(=O)[C@H](CC(C)C)NC(=O)[C@H](C(C)C)NC(=O)[C@H](CCCCNC(=N)N)NC(=O)[C@H](CC(=O)O)NC(=O)[C@H](Cc2c[nH]cn2)NC(=O)[C@H](Cc2ccc(O)cc2)NC1=O [compound 12] ({CH2CO}-AR[Ahp(2)]YHD[hArg]VL[Bip][Ahp(2)]DC-NH2; thioether N-13 (inferred); N-terminus and C-terminus assumed)
1.1e+06 M⁻¹ s⁻¹ | 0.024 s⁻¹ |  | CCCCC[C@@H]1NC(=O)[C@H](CCCNC(=N)N)NC(=O)[C@H](C)NC(=O)CSC[C@@H](C(N)=O)NC(=O)[C@H](CC(=O)O)NC(=O)[C@H](CCCCC)NC(=O)[C@H](Cc2ccc(-c3ccccc3)cc2)NC(=O)[C@H](CCS(C)(=O)=O)NC(=O)[C@H](C(C)C)NC(=O)[C@H](CCC(N)=O)NC(=O)[C@H](CC(=O)O)NC(=O)[C@H](Cc2c[nH]cn2)NC(=O)[C@H](Cc2ccc(O)cc2)NC1=O [compound 13] ({CH2CO}-AR[Ahp(2)]YHDQV[Met(O2)][Bip][Ahp(2)]DC-NH2; thioether N-13)
533000 M⁻¹ s⁻¹ | 0.0023 s⁻¹ |  | CCCCC[C@@H]1NC(=O)[C@H](CCCNC(=N)N)NC(=O)[C@H](C)NC(=O)CSC[C@@H](C(N)=O)NC(=O)[C@H](CC(=O)O)NC(=O)[C@H](CCCCC)NC(=O)[C@H](Cc2ccc(-c3ccccc3)cc2)NC(=O)[C@H](CC(C)C)NC(=O)[C@H](C(C)C)NC(=O)[C@H](CCC(N)=O)NC(=O)[C@H](CC(=O)O)NC(=O)[C@H](Cc2c[nH]cn2)NC(=O)[C@H](Cc2ccc(O)cc2)NC1=O [compound 4] ({CH2CO}-AR[Ahp(2)]YHDQVL[Bip][Ahp(2)]DC-NH2; thioether N-13 (inferred); N-terminus and C-terminus assumed)
560000 M⁻¹ s⁻¹ | 0.0028 s⁻¹ |  | CCCCC[C@@H]1NC(=O)[C@H](Cc2ccc(-c3ccccc3)cc2)NC(=O)[C@H](CC(C)C)NC(=O)[C@H](C(C)C)NC(=O)[C@H](CCC(=O)O)NC(=O)[C@H](CC(=O)O)NC(=O)[C@H](Cc2c[nH]cn2)NC(=O)[C@H](Cc2ccc(O)cc2)NC(=O)[C@H](CCCCC)NC(=O)[C@H](CCCNC(=N)N)NC(=O)[C@H](C)NC(=O)CSC[C@@H](C(N)=O)NC(=O)[C@H](C)NC1=O [compound 27] ({CH2CO}-AR[Ahp(2)]YHDEVL[Bip][Ahp(2)]AC-NH2; thioether N-13 (inferred); N-terminus and C-terminus assumed)

Source: patent publication US20250263440A1, “CD38-BINDING AGENTS AND USES THEREOF” (PeptiDream Inc., priority 2019, published 2025)
